The results in this text go back to publication PMC5906549, “Cathelicidin-Derived Antimicrobial Peptides Inhibit Zika Virus Through Direct Inactivation and Interferon Pathway” (Frontiers in Immunology, 2018).

Test [1] concerns ZIKV strain MR766. The test can be described thus: Viral attachment assay at 4°C in human fetal astrocytes. The following applies: astrocytes pre-incubated at 4°C half an hour, peptide along with ZIKV MOI 0.5 for 2 h at 4°C; normalized to 18-s rRNA; N = 3. In kind it is cell-based, Zika virus. Here is the method: Viral attachment assay was adapted from a previous publication ([36]) with modifications. Briefly, primary human fetal astrocytes were pre-incubated at 4°C for half an hour and then treated with AMPs along with ZIKV infection at the MOI of 0.5. After infection at 4°C for 2 h, cultures were washed with fresh medium for three times and RNA was isolated from whole cells. ZIKV RNA was determined through real-time RT-PCR. Data were normalized to 18-s rRNA and presented as fold change compared with the ZIKV group. One experimental group was subjected to trypsin digestion to remove any attached virions. This group served as a positive control for the viral attachment experiment.
(A) Primary human fetal astrocytes were pre-incubated at 4°C for half an hour and then treated with antimicrobial peptides along with ZIKV infection at the MOI of 0.5 for 2 h. Cultures were then washed with fresh medium for three times. […] Data were normalized to 18-s rRNA and presented as fold change compared with the ZIKV group. The trypsin digestion group readily removes any attached virions and thus serves as positive control. […] After infection for 2 h, cultures were washed with fresh medium for three times and RNA was isolated from whole cells. ZIKV RNA was determined through real-time RT-PCR.

Test [2] relates to ZIKV strain MR766. The test can be described thus: ZIKV virion levels in astrocyte supernatants, plaque-forming assay on Vero cells. The settings on record: human fetal astrocytes; peptide 0.4 to 10 µM pre-treatment; supernatants titrated on Vero cells. In kind it is cell-based, Zika virus. Here is the method:
(A) Human fetal astrocytes were treated with doses of the selected peptides ranging from 1 to 50 µM. After 24 h, the cultures were washed and treated with same doses of peptides in fresh medium for another 24 h. Cell viability was determined by a colorimetric MTS assay. Results shown are the averages ±SD of experiments performed in triplicate. Data were analyzed by nonlinear regression and assessed the EC50 for each of the antimicrobial peptides. (B–E) Astrocytes were treated with doses of antimicrobial peptides ranging from 0.4 to 10 µM for 2 h then infected with ZIKV at the MOI of 0.5. After 24 h, the cultures were washed and treated with same doses of antimicrobial peptides in fresh medium for another 24 h. At the experimental endpoint, intracellular ZIKV RNA (B) was determined through real-time RT-PCR in total cellular RNA. Data were normalized to GAPDH and presented as fold change (in log scale) compared with ZIKV group. Extracellular ZIKV RNA [(C), in log scale] was determined through real-time RT-PCR using total RNA isolated from cell-free supernatants. ZIKV virion levels (in log scale) were determined by adding cell-free culture supernatants to Vero cells and overlaid with Agar gel in viral PFA (D). Viral plaques were manually counted and calculated as PFU/mL (E). * p < 0.05, ** p < 0.01, and *** p < 0.001, as compared with the ZIKV group without peptide treatment (ANOVA, N = 3).

Test [3] deals with ZIKV strain MR766. The test can be described thus: Direct inactivation of ZIKV by AMPs, plaque-forming assay. Further details: species or system Zika virus. The following applies: 37°C; for Number of infectious virions after direct incubation: 10 µM peptide with ZIKV, all the time points (1, 2, 4 h), plaque assay; for Inactivation of Zika virions: plaque assay on Vero. How it is done: Vero cells were plated into 12-well plates at 5 (10^5 cells/well the day before infection). On the day of infection, the monolayers of Vero cells were inoculated with 100 µL of 10-fold serial dilutions of viral stocks and incubated at 37 °C for 1 h. After viral inoculation, medium containing ZIKV particles was removed and 1 ml overlay containing 0.6% molecular biology grade agarose (Agarose Unlimited, Alachua, FL, USA) in Modified Eagle Medium (Gibco) with 2% FBS. Cells were maintained at 37°C in 5% CO2 for 4 days. On day 5, cells were fixed with 4% paraformaldehyde solution in PBS and stained with 1% crystal violet solution in 20% methanol in water. Viral plaques were photographed using a CanonScan 9950F scanner and each plaque was counted as a plaque-forming unit (PFU). Viral titer was calculated as PFU/[volume virus (mL) × (dilution factor)].
Zika virus viral stocks were diluted to 10^6 PFU/mL with serum-free medium and peptides were added at the indicated final concentrations. The mixtures were incubated at 37°C for 1–4 h. At each time point, 200 µL of the mixtures was removed for virus yield determination. Ten-fold serial dilutions of the mixtures were prepared and number of infectious Zika virions in the inoculum was determined by the aforementioned plaque-forming assay on Vero cell monolayers.
Figure 7 GF-17 directly inactivates Zika virions. (A) Experimental scheme. Briefly, Zika virus (ZIKV) virions were directly treated with antimicrobial peptides at 37°C. Part of the inoculum was removed at the indicated time points and serial diluted for the plaque-forming assay to determine the number of infectious Zika virions. (B) Quantification of the viral plaques was performed and plaque-forming unit at each of the treatment groups was shown. ANOVA and Bonferroni post-test were performed on all groups. *** p < 0.001, as compared with the ZIKV control group (CTL, control).

Peptide text beside a SMILES is read from it.

On to `CC[C@H](C)[C@H](NC(=O)[C@H](CCCCN)NC(=O)[C@H](CCCCN)NC(=O)[C@H](Cc1ccccc1)NC(=O)[C@H](CC(C)C)NC(=O)[C@H](CCCCN)NC(=O)[C@H](CCCCN)NC(=O)[C@H](Cc1ccccc1)NC(=O)[C@H](CCCCN)NC(=O)[C@H](CCCCN)NC(=O)[C@H](CCCNC(=N)N)NC(=O)[C@H](Cc1ccccc1)NC(=O)[C@H](CCCNC(=N)N)NC(=O)[C@H](CCCCN)NC(=O)[C@H](Cc1ccccc1)NC(=O)[C@H](CCCNC(=N)N)NC(=O)CN)C(=O)N[C@@H](CO)C(=O)O` [BMAP-18] (H-GRFKRFRKKFKKLFKKIS-OH; N-terminus and C-terminus assumed), for which the “ZIKV RNA levels in astrocytes at 4°C (viral attachment)” value (shortened to “ZIKV RNA levels in astrocytes at 4°C”) with ZIKV strain MR766 [1] is reported as “did not alter the ZIKV RNA levels”. For the same molecule, the “ZIKV virions (PFU/mL) in supernatants” value in the test with ZIKV strain MR766 [2] is “ZIKV virions were reduced”. For the same molecule, the “Number of infectious virions after direct incubation” value in the test on ZIKV strain MR766 [3] is reported as “did not significantly change the number of infectious virions”.

For the molecule `CC[C@H](C)[C@H](NC(=O)[C@H](CCCNC(=N)N)NC(=O)[C@H](CCC(N)=O)NC(=O)[C@@H](NC(=O)[C@@H](NC(=O)[C@H](CCCNC(=N)N)NC(=O)[C@H](CCCCN)NC(=O)[C@H](Cc1ccccc1)NC(=O)CN)[C@@H](C)CC)C(C)C)C(=O)N[C@@H](CCCCN)C(=O)N[C@@H](CC(=O)O)C(=O)N[C@@H](Cc1ccccc1)C(=O)N[C@@H](CC(C)C)C(=O)N[C@@H](CCCNC(=N)N)C(=O)N[C@@H](CC(N)=O)C(=O)N[C@@H](CC(C)C)C(=O)N[C@H](C(N)=O)C(C)C` [GF-17] (H-GFKRIVQRIKDFLRNLV-NH2; N-terminus and C-terminus assumed), the “ZIKV RNA levels in astrocytes at 4°C” value in the test on ZIKV strain MR766 [1] was “did not alter the ZIKV RNA levels”. Moreover, in the test with ZIKV strain MR766 [2], the “ZIKV virions (PFU/mL) in supernatants” value is on record as “ZIKV virions were reduced”. The “Inactivation of Zika virions” value with ZIKV strain MR766 [3] (10 µM peptide mixed with ZIKV (10^6 PFU/mL, serum-free medium), 1-h incubation) is over 95%; with ZIKV strain MR766 [3] (10 µM peptide mixed with ZIKV, 2-h incubation), over 99%; with ZIKV strain MR766 [3] (10 µM peptide mixed with ZIKV, 4-h incubation), 99%.

On to `CC[C@H](C)[C@H](NC(=O)[C@H](CCCNC(=N)N)NC(=O)[C@H](CCC(N)=O)NC(=O)[C@@H](NC(=O)[C@@H](NC(=O)[C@@H](N)CCCNC(=N)N)[C@@H](C)CC)C(C)C)C(=O)N[C@@H](CCCCN)C(=O)N[C@@H](CC(=O)O)C(=O)N[C@@H](Cc1ccccc1)C(=O)N[C@@H](CC(C)C)C(=O)O` [RI-10, reference compound] (H-RIVQRIKDFL-OH; N-terminus and C-terminus assumed), for which the “ZIKV RNA levels in astrocytes at 4°C” value in the test with ZIKV strain MR766 [1] is recorded as “did not alter the ZIKV RNA levels”. For the same molecule, the “Number of infectious virions after direct incubation” value with ZIKV strain MR766 [3] is listed as “did not significantly change the number of infectious virions”.
